Experimental data reported in patent publication US20190152905A1 (priority 2016, published 2019).
“And” between values parts separate entries of the source, which are not always exact repeats. Equal entries are not always repeated.

Experiments:
[1] = system: plasma; test: Anticoagulant activity: thrombin time (TT), Sysmex CA-1500; format: biochemical, human; details: 20 μl sample + 80 μl plasma, number in label = g/dL
Method: (§1) Antithrombotic (anticoagulant) activity was evaluated according to a previously reported method. Each of thromborel S, actin and thrombin, which are reagents for Sysmex CA-1500 for analysis of PT, aPTT and TT, was mounted in Sysmex CA-1500 (Siemens Healthcare, Germany) which is an automated blood coagulation test device. According to the automated procedure of the test device, clotting time (sec) (prothrombin time (PT), activated partial thromboplastin time (aPTT) and thrombin time (TT)) was measured. A sufficient amount of a sample for each of the three analyses was about 400 uL of an 80:20 mixture of plasma and a test substance.
(§2) The isolated plasma was used in an experiment in a fresh state within 5-6 hours.
(§3) In this experiment, for the relative comparison of the measured clotting time (sec) (PT, aPTT and TT) between test groups, clotting time prolongation (%) relative to triple distilled water (purified water) that is a normal control test sample was statistically analyzed. For statistical analysis, the […] anticoagulant activities of test materials were comparatively analyzed using SPSS IBM version 21.0 by one-way ANOVA at p<0.05, and significance comparison between groups was performed by Duncan's test.
(§4) The aspirin solution was immediately used at room temperature in a light-shielded state or was cold-stored.
(§5) As a control, aspirin was used, and as a vehicle control, triple distilled water (purified water) was used instead of the sample.

[2] = system: plasma; test: Anticoagulant activity: activated partial thromboplastin time (aPTT), Sysmex CA-1500; format: biochemical, human; details: 20 μl sample + 80 μl plasma, number in label = g/dL
Method: as §1, §2, §3, §4, §5

[3] = system: plasma; test: Anticoagulant activity: prothrombin time (PT), Sysmex CA-1500; format: biochemical, human; details: 20 μl sample + 80 μl plasma, number in label = g/dL
Method: as §1, §2, §3, §4, §5

[4] = system: male mice (C57BL/6), high-fat diet; test: Glucose tolerance test (GTT) at 8 weeks of high-fat diet feeding; format: in vivo
Method: (§6) Using 8-week-old male mice (C57BL/6) (purchased from CoreTech), anti-diabetic candidate materials were evaluated using a GTT (Glucose Tolerance Test) that is a typical method for diagnosis of diabetes.
(§7) Mice were housed at a temperature of 22±2° C. and a relative humidity of 55-60% with 12-hr light/12-hr dark cycles. Five animals were allotted to each group, and mice from the same mother were grouped into one group, because male mice tend to fight together.
(§8) As feed, high-fat diet (60% of calories from fat; Research Diet Inc., New Brunswick, N.J.) and water were fed ad libitum for 10 weeks. Herein, the water fed contained the samples prepared in Examples 1-2 (3), 2-1, 2-4-1, 2-4-2 and 2-5. As a positive control, metformin (M-072, Sigma) (250 mg/kg) was used, and as a control, the samples prepared in Comparative Examples 1-1, 2-3-2, 2-5-1, 2-5-2 and 2-6 were used.
(§9) For reference, each of the samples prepared in Examples 2-4-1, 2-4-2 and 2-5 was set to the amount to be taken by an adult (60 kg) for 3 days, and the amount was converted into a mouse dose (12-fold/kg, see the US NIH guidance), thereby preparing animal feed. Namely, the amount to be taken by an adult (60 kg) for 3 days is 180-day dose/kg, which corresponds to 15-day dose/kg for mice. Thus, the amount corresponds to 750-day dose/mouse (20 g), because the average weight of mice is about 20 g. Thus, one mouse was allowed to take 1/750 of the prepared sample each day.
(§10) In addition, each of the samples prepared in Examples 1-2 (3) and 2-1 was set to the amount to be taken by an adult (60 kg) for 2 days, and the amount was converted into a mouse dose (12-fold/kg, see the US NIH guidance), thereby preparing animal feed. Namely, the amount to be taken by an adult (60 kg) for 2 days is 120-day dose/kg, which corresponds to 10-day dose/kg for mice. Thus, the amount corresponds to 500-day dose/mouse (20 g), because the average weight of mice is about 20 g. Thus, one mouse was allowed to take 1/500 of the prepared sample each day.
At 8 weeks of high-fat diet feeding, a glucose tolerance test (GTT) was performed. For 8 hours for the test, mice were fasted. Then, blood was sampled from the tail vein, and initial blood glucose levels were measured with a blood glucose meter (AUTO-CHEK, Diatech Korea). Then, glucose was administered intraperitoneally to the mice at a concentration of 1 g/kg, and after 30 min, 60 min, 90 min and 120 min, blood was sampled from the mice, followed by measurement of blood glucose levels (each group consisting of five animals).
(§11) Meanwhile, experimental analysis results were expressed as mean±S.E.M., and the significance between test groups was statistically processed using Student T-TEST, and then the significance was verified at *P<0.05.

[5] = Body weight and body weight gain of high-fat diet mice; format: in vivo, mice (C57BL/6); details: for Body weight / Body weight gain: high-fat diet mice, mean
Method: as §6, §7, §8, §9, §10
The diet intake and the body weight gain were measured weekly for 8 weeks. The body weight and the diet intake were measured immediately before first drug administration, and then measured at one-week intervals.
as §11

Which results are given for `O=C[C@@H](O)[C@H](O)[C@H](O)CO` [Ara, arabinose]?
TT clotting time prolongation relative to purified water, Mean ([1]; Table 18, listed as Ara 5.2): 13.40%; TT clotting time prolongation relative to purified water, Mean ([1]; Table 18, listed as Ara 7.8): 22.92%

What does the source list for `CC(=O)Oc1ccccc1C(=O)O` [Asp 7.5 mg/ml, aspirin]?
aPTT clotting time prolongation relative to purified water, Mean ([2]; Table 18): 7.31%; aPTT clotting time prolongation relative to purified water, Mean ([2]; Table 19): 16.28%; aPTT clotting time prolongation relative to purified water, Mean ([2]; Table 20): 29.82%; TT clotting time prolongation relative to purified water, Mean ([1]; Table 18): 13.59%; TT clotting time prolongation relative to purified water, Mean ([1]; Table 19, values excluding one sample showing an extreme value): 20.96%; TT clotting time prolongation relative to purified water, Mean ([1]; Table 20): 23.95%; PT clotting time prolongation relative to purified water, Mean ([3]; Table 18): 9.90%; PT clotting time prolongation relative to purified water, Mean ([3]; Table 19): 17.51%; PT clotting time prolongation relative to purified water, Mean ([3]; Table 20): 26.02%

Which “aPTT clotting time prolongation relative to purified water, Mean” value ([2]; Table 20) does the source give for `O=C(CO)[C@@H](O)[C@H](O)[C@H](O)CO` [Fruc, fructose] here?
The value was −0.20%.

And the “aPTT clotting time prolongation relative to purified water, Mean” value ([2]; Table 20, listed as Fruc 12.4)?
Its value is 0.58%.

And the “TT clotting time prolongation relative to purified water, Mean” value ([1]; Table 20, listed as Fruc 6.2)?
Its value is 13.19%.

And the “TT clotting time prolongation relative to purified water, Mean” value ([1]; Table 20, listed as Fruc 12.4)?
Its value is 30.07%.

What about the “PT clotting time prolongation relative to purified water, Mean” value ([3]; Table 20) of the same compound?
Its value is 0.54%.

Which “aPTT clotting time prolongation relative to purified water, Mean” value ([2]; Table 19, listed as Gluc 6.2) does the source give for `O=C[C@H](O)[C@@H](O)[C@H](O)[C@H](O)CO` [Gluc, glucose] here?
The value was 2.22%.

What about the “aPTT clotting time prolongation relative to purified water, Mean” value ([2]; Table 19, listed as Gluc 12.4) of the same compound?
The value was 2.89%.

And the “TT clotting time prolongation relative to purified water, Mean” value ([1]; Table 19, values excluding one sample showing an extreme value, listed as Gluc 6.2)?
Its value is 16.24%.

And the “TT clotting time prolongation relative to purified water, Mean” value ([1]; Table 19, values excluding one sample showing an extreme value, listed as Gluc 12.4)?
The value was 27.82%.

And the “PT clotting time prolongation relative to purified water, Mean” value ([3]; Table 19, listed as Gluc 6.2)?
The value was 1.69%.

What about the “PT clotting time prolongation relative to purified water, Mean” value ([3]; Table 19, listed as Gluc 12.4) of the same compound?
Its value is 2.26%.

Which “aPTT clotting time prolongation relative to purified water, Mean” value ([2]; Table 20, listed as Mann 3.1) does the source give for `O=C[C@@H](O)[C@@H](O)[C@H](O)[C@H](O)CO` [Mann, mannose] here?
Its value is 0.65%.

What about the “aPTT clotting time prolongation relative to purified water, Mean” value ([2]; Table 20, listed as Mann 6.2) of the same compound?
The value was 1.24%.

And the “aPTT clotting time prolongation relative to purified water, Mean” value ([2]; Table 20, listed as Mann 12.4)?
Its value is 7.98%.

What about the “TT clotting time prolongation relative to purified water, Mean” value ([1]; Table 20, listed as Mann 3.1) of the same compound?
The value was 11.67%.

And the “TT clotting time prolongation relative to purified water, Mean” value ([1]; Table 20, listed as Mann 6.2)?
Its value is 22.74%.

And the “TT clotting time prolongation relative to purified water, Mean” value ([1]; Table 20, listed as Mann 12.4)?
The value was 47.87%.

And the “PT clotting time prolongation relative to purified water, Mean” value ([3]; Table 20, listed as Mann 3.1)?
The value was 2.71%.

What about the “PT clotting time prolongation relative to purified water, Mean” value ([3]; Table 20, listed as Mann 6.2) of the same compound?
The value was 5.96%.

And the “PT clotting time prolongation relative to purified water, Mean” value ([3]; Table 20, listed as Mann 12.4)?
Its value is 13.55%.

With `CN(C)C(=N)N=C(N)N` [Metformin, metformin] as the compound, how does the “Glucose level, 0 min” value ([4]; GTT, high-fat diet mice, 0 min (fasting, before administration), mean) read?
Its value is 144.20 mg/dL.

What about the “Glucose level, 30 min” value ([4]; GTT, high-fat diet mice, 30 min, mean) of the same compound?
Its value is 386.40 mg/dL.

What about the “Glucose level, 60 min” value ([4]; GTT, high-fat diet mice, 60 min, mean) of the same compound?
The value was 301.40 mg/dL.

And the “Glucose level, 90 min” value ([4]; GTT, high-fat diet mice, 90 min, mean)?
Its value is 194.40 mg/dL.

What about the “Glucose level, 120 min” value ([4]; GTT, high-fat diet mice, 120 min, mean) of the same compound?
The value was 135.20 mg/dL.

What about the “Body weight” value ([5]; 1 week) of the same compound?
The value was 21.00 g.

And the “Body weight” value ([5]; 2 weeks)?
The value was 22.78 g and 26.344 g.

What about the “Body weight gain” value ([5]; 2 weeks) of the same compound?
Its value is 3.48 g.

And the “Body weight” value ([5]; 3 weeks)?
Its value is 23.84 g.

What about the “Body weight gain” value ([5]; 3 weeks) of the same compound?
The value was 4.54 g.

And the “Body weight” value ([5]; 4 weeks)?
Its value is 25.18 g.

What about the “Body weight gain” value ([5]; 4 weeks) of the same compound?
Its value is 5.88 g and 4.600 g.

And the “Body weight” value ([5]; 5 weeks)?
The value was 25.72 g.

What about the “Body weight gain” value ([5]; 5 weeks) of the same compound?
The value was 6.42 g.

What about the “Body weight” value ([5]; 6 weeks) of the same compound?
The value was 26.34 g.

And the “Body weight gain” value ([5]; 6 weeks)?
Its value is 7.04 g.

And the “Body weight” value ([5]; 7 weeks)?
The value was 27.52 g.

What about the “Body weight gain” value ([5]; 7 weeks) of the same compound?
The value was 8.22 g.

What about the “Body weight” value ([5]; 8 weeks) of the same compound?
Its value is 28.20 g.

And the “Body weight” value ([5]; Before admis.)?
Its value is 19.30 g.

What about the “Weight, Mean” value ([5]; HFD mice, sample in drinking water, 1 week) of the same compound?
The value was 21.00 g.

What about the “Weight, Mean” value ([5]; HFD mice, sample in drinking water, 6 weeks) of the same compound?
The value was 26.34 g.

For `O=C[C@H](O)[C@H](O)[C@H](O)CO` [Rib, ribose], which “TT clotting time prolongation relative to purified water, Mean” value ([1]; Table 19, values excluding one sample showing an extreme value, listed as Rib 5.2) is on record?
Its value is 23.15%.

And the “TT clotting time prolongation relative to purified water, Mean” value ([1]; Table 19, values excluding one sample showing an extreme value, listed as Rib 10.4)?
Its value is 52.50%.

Which fasting glucose level ([4]; 8 h fasted, 8 weeks of HFD, in words, comparator in the value) does the source give for `NCCS(=O)(=O)O` [Tau, taurine] here?
Its fasting glucose level is “all lower than that of the mice administered with high-fat diet (HFD), and were similar to the blood glucose levels of normal mice”.

And the “glucose control ability in GTT” value ([4]; glucose 1 g/kg i.p., 8 weeks of HFD, in words, comparator in the value)?
The value was “significantly higher than that of the group administered with HFD alone”.

What about the “Body weight gain, Mean” value ([5]; HFD mice, sample in drinking water, 8 weeks) of the same compound?
The value was 9.52 g.

And the “body weight gain compared to the group administered with high-fat diet (HFD) alone” value ([5]; at 8 weeks after high-fat diet feeding, in words)?
Its value is “significant reduction in body weight gain”.

For `O=C[C@H](O)[C@@H](O)[C@H](O)CO` [Xyl, xylose], which “TT clotting time prolongation relative to purified water, Mean” value ([1]; Table 18, listed as Xyl 1.04) is on record?
The value was 2.68%.

And the “TT clotting time prolongation relative to purified water, Mean” value ([1]; Table 18, listed as Xyl 5.2)?
The value was 14.59%.

What about the “TT clotting time prolongation relative to purified water, Mean” value ([1]; Table 18, listed as Xyl 7.8) of the same compound?
Its value is 24.41%.
